Type in all cases: biochemical
One assay has as its target T1, TYK2 (Homo sapiens, UniProt P29597).
T1 construct: JAK1 (aa 850-1154) and TYK2 (aa 871-1187) are expressed with an N-terminally fused GST-tag; GST (N); purchased Carna Biosciences, Inc; host or cells: baculovirus expression system
T1 sequence (P29597 871-1187): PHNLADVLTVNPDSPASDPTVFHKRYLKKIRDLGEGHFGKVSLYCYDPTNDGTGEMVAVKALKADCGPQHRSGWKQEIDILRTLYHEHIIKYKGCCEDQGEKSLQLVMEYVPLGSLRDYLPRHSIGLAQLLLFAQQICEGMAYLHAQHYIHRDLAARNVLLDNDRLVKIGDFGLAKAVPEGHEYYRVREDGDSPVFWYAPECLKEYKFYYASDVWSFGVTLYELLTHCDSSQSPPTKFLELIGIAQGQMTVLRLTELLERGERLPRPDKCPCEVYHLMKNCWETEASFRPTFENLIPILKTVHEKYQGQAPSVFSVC
Description: JAK kinase assay (HTRF, phosphorylation of synthetic peptide), TYK2. The settings on record: catalytic domain, ATP at Km (13 μM); read-out: TYK2 kinase inhibitory activity (EC50). Put shortly: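 1 µM biotinylated TK peptide at Km ATP in pH 7.0 Hepes, 20-30 min RT. EDTA stop; overnight streptavidin-XL665/cryptate HTRF read.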

The next assay deals with T2, JAK1 (Homo sapiens, UniProt P23458).
T2 construct: JAK1 (aa 850-1154) and TYK2 (aa 871-1187) are expressed with an N-terminally fused GST-tag; GST (N); purchased Carna Biosciences, Inc; host or cells: baculovirus expression system
Description: JAK kinase assay (HTRF, phosphorylation of synthetic peptide), JAK1. The settings on record: catalytic domain, ATP at Km (7 μM); read-out: JAK1 kinase inhibitory activity (EC50). Put shortly:
(§1)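 Catalytic-domain human JAK1 (GST-tagged, aa 850-1154) or His-tagged JAK2, baculovirus-expressed, phosphorylated 1 µM biotinylated TK peptide at Km ATP (JAK1 7 µM, 10 mM MgCl2, 50 nM SEB; JAK2 4 µM, 5 mM MgCl2) in pH 7.0 Hepes, 20-30 min RT. EDTA stop; overnight streptavidin-XL665/cryptate HTRF read.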
(In general: TR-FRET usually uses a lanthanide donor and a delayed reading to cut background.)

For the next assay, the target named is T3, JAK2 (Homo sapiens, UniProt O60674).
T3 construct: All four purified enzymes contain only the catalytic domain; His (N); purchased Carna Biosciences, Inc; host or cells: baculovirus expression system
Description: JAK kinase assay (HTRF, phosphorylation of synthetic peptide), JAK2. The settings on record: catalytic domain, ATP at Km (4 μM); read-out: JAK2 kinase inhibitory activity (EC50). Put shortly: as §1

For another assay, the target named is T4, JAK3 (Homo sapiens, UniProt P52333).
T4 construct: All four purified enzymes contain only the catalytic domain; His (N); purchased Carna Biosciences, Inc; host or cells: baculovirus expression system
As to the kind of experiment: JAK kinase assay (HTRF, phosphorylation of synthetic peptide), JAK3. The note with it: catalytic domain, ATP at Km (2 μM); read-out: JAK3 kinase inhibitory activity (EC50).

Bounds are passed on as bounds.

T4 sequence (P52333 822-1111 limits assumed): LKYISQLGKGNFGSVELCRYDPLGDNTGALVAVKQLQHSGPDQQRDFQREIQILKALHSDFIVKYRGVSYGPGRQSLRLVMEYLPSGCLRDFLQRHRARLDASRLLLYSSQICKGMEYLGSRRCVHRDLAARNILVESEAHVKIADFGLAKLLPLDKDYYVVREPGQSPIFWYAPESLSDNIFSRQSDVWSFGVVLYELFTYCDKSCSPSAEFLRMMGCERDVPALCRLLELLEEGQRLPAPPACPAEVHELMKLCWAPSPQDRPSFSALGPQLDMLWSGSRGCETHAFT
T3 sequence (O60674 849-1124 limits assumed): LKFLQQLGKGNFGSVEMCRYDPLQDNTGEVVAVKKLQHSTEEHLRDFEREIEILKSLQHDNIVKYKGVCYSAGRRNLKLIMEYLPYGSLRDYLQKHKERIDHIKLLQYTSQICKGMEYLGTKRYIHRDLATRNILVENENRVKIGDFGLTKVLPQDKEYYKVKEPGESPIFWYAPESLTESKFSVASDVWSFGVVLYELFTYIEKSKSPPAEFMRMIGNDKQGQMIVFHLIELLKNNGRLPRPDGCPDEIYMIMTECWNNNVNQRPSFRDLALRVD
T2 sequence (P23458 850-1154): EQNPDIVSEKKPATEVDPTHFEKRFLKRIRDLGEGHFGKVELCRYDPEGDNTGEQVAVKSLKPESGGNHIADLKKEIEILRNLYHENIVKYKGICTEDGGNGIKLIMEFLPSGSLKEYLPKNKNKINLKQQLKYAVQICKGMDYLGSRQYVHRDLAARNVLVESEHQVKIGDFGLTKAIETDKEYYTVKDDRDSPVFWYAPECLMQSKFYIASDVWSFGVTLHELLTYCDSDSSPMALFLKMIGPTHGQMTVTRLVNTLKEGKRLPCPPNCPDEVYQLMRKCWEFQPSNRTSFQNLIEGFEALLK

The term EC50 denotes the concentration at which the effect is half-maximal. For `CC(C#N)N(C1COC1)S(=O)(=O)N1CCN(c2ncnc3[nH]ccc23)CC12CC2` (stereo not shown) [Example 117, N-(1-cyanoethyl)-N-(oxetan-3-yl)-5-(7H-pyrrolo[2,3-d]pyrimidin-4-yl)-5,8-diazaspiro[2.5]octane-8-sulfonamide], the EC50 is 100 to 500 nM at TYK2, less than 100 nM at JAK1, less than 100 nM on JAK2 and less than 100 nM at JAK3.
On to `CCCS(=O)(=O)N1CCC(CN(C)S(=O)(=O)N2CCN(c3ncnc4[nH]ccc34)CC23CC3)C1` (stereo not shown) [Example 118, N-methyl-N-[(1-propylsulfonylpyrrolidin-3-yl)methyl]-5-(7H-pyrrolo[2,3-d]pyrimidin-4-yl)-5,8-diazaspiro[2.5]octane-8-sulfonamide], for which the EC50 at TYK2 was 100 to 500 nM; on JAK1 it was less than 100 nM; at JAK2, less than 100 nM; at JAK3, less than 100 nM.
Take `CN(CC1CCN(S(C)(=O)=O)C1)S(=O)(=O)N1CCN(c2ncnc3[nH]ccc23)CC12CC2` (stereo not shown) [Example 119, N-methyl-N-[(1-methylsulfonylpyrrolidin-3-yl)methyl]-5-(7H-pyrrolo[2,3-d]pyrimidin-4-yl)-5,8-diazaspiro[2.5]octane-8-sulfonamide]: the EC50 on TYK2 was 100 to 500 nM; on JAK1, less than 100 nM; on JAK2, less than 100 nM; on JAK3 it was less than 100 nM.
In the case of `COCCS(=O)(=O)N1CCC(CN(C)S(=O)(=O)N2CCN(c3ncnc4[nH]ccc34)CC23CC3)C1` (stereo not shown) [Example 120, N-[[1-(2-methoxyethylsulfonyl)pyrrolidin-3-yl]methyl]-N-methyl-5-(7H-pyrrolo[2,3-d]pyrimidin-4-yl)-5,8-diazaspiro[2.5]octane-8-sulfonamide], the EC50 was 100 to 500 nM on TYK2, less than 100 nM at JAK1, less than 100 nM at JAK2 and less than 100 nM at JAK3.
Take `CN(CC1CCN(S(=O)(=O)CCCC#N)C1)S(=O)(=O)N1CCN(c2ncnc3[nH]ccc23)CC12CC2` (stereo not shown) [Example 121, N-[[1-(3-cyanopropylsulfonyl)pyrrolidin-3-yl]methyl]-N-methyl-5-(7H-pyrrolo[2,3-d]pyrimidin-4-yl)-5,8-diazaspiro[2.5]octane-8-sulfonamide]: the EC50 at TYK2 was 100 to 500 nM; at JAK1 it was less than 100 nM; on JAK2, less than 100 nM; on JAK3 it was less than 100 nM.
For the compound `CN(CC1CCN(S(=O)(=O)CC2CC2)C1)S(=O)(=O)N1CCN(c2ncnc3[nH]ccc23)CC12CC2` (stereo not shown) [Example 122, N-[[1-(cyclopropylmethylsulfonyl)pyrrolidin-3-yl]methyl]-N-methyl-5-(7H-pyrrolo[2,3-d]pyrimidin-4-yl)-5,8-diazaspiro[2.5]octane-8-sulfonamide], the EC50 on TYK2 was 100 to 500 nM; on JAK1, less than 100 nM; at JAK2 it was less than 100 nM; on JAK3, less than 100 nM.
As for `CN(CC1CCN(C(=O)CCO)C1)S(=O)(=O)N1CCN(c2ncnc3[nH]ccc23)CC12CC2` (stereo not shown) [Example 123, N-[[1-(3-hydroxypropanoyl)pyrrolidin-3-yl]methyl]-N-methyl-5-(7H-pyrrolo[2,3-d]pyrimidin-4-yl)-5,8-diazaspiro[2.5]octane-8-sulfonamide], the EC50 at TYK2 is greater than 500 nM; on JAK1, less than 100 nM; on JAK2, less than 100 nM; at JAK3, 100 to 500 nM.
Consider `CC(O)CC(=O)N1CCC(CN(C)S(=O)(=O)N2CCN(c3ncnc4[nH]ccc34)CC23CC3)C1` (stereo not shown) [Example 124, N-[[1-(3-hydroxybutanoyl)pyrrolidin-3-yl]methyl]-N-methyl-5-(7H-pyrrolo[2,3-d]pyrimidin-4-yl)-5,8-diazaspiro[2.5]octane-8-sulfonamide], for which the EC50 at TYK2 is greater than 500 nM; at JAK1, less than 100 nM; on JAK2 it was less than 100 nM; at JAK3 it was 100 to 500 nM.
Turning to `CCC(=O)N1CCC(CN(C)S(=O)(=O)N2CCN(c3ncnc4[nH]ccc34)CC23CC3)C1` (stereo not shown) [Example 125, N-methyl-N-[(1-propanoylpyrrolidin-3-yl)methyl]-5-(7H-pyrrolo[2,3-d]pyrimidin-4-yl)-5,8-diazaspiro[2.5]octane-8-sulfonamide], the EC50 on TYK2 was greater than 500 nM; at JAK1, less than 100 nM; on JAK2, less than 100 nM; on JAK3, 100 to 500 nM.
With `CN(CC1CCN(C(=O)CCC#N)C1)S(=O)(=O)N1CCN(c2ncnc3[nH]ccc23)CC12CC2` (stereo not shown) [Example 126, N-[[1-(3-cyanopropanoyl)pyrrolidin-3-yl]methyl]-N-methyl-5-(7H-pyrrolo[2,3-d]pyrimidin-4-yl)-5,8-diazaspiro[2.5]octane-8-sulfonamide], the EC50 at TYK2 is greater than 500 nM; at JAK1, less than 100 nM; at JAK2, less than 100 nM; at JAK3, 100 to 500 nM.
For the compound `CN(CC1CCN(C(=O)C(O)CO)C1)S(=O)(=O)N1CCN(c2ncnc3[nH]ccc23)CC12CC2` (stereo not shown) [Example 127, N-[[1-(2,3-dihydroxypropanoyl)pyrrolidin-3-yl]methyl]-N-methyl-5-(7H-pyrrolo[2,3-d]pyrimidin-4-yl)-5,8-diazaspiro[2.5]octane-8-sulfonamide], the EC50 at TYK2 was greater than 500 nM; at JAK1 it was less than 100 nM; on JAK2, less than 100 nM; on JAK3, 100 to 500 nM.
In the case of `CN(CC1CCN(C=O)C1)S(=O)(=O)N1CCN(c2ncnc3[nH]ccc23)CC12CC2` (stereo not shown) [Example 128, N-[(1-formylpyrrolidin-3-yl)methyl]-N-methyl-5-(7H-pyrrolo[2,3-d]pyrimidin-4-yl)-5,8-diazaspiro[2.5]octane-8-sulfonamide], the EC50 on TYK2 was greater than 500 nM; at JAK1, less than 100 nM; on JAK2, less than 100 nM; on JAK3, less than 100 nM.
On to `CN(C(=O)CC(F)(F)F)S(=O)(=O)N1CCN(c2ncnc3[nH]ccc23)CC12CC2` [Example 129, 3,3,3-trifluoro-N-methyl-N-[[5-(7H-pyrrolo[2,3-d]pyrimidin-4-yl)-5,8-diazaspiro[2.5]octan-8-yl]sulfonyl]propanamide], for which the EC50 at TYK2 is 100 to 500 nM; at JAK1, less than 100 nM; at JAK2, less than 100 nM; on JAK3, 100 to 500 nM.
On to `CN(C(=O)C1CCC(F)(F)CC1)S(=O)(=O)N1CCN(c2ncnc3[nH]ccc23)CC12CC2` [Example 130, 4,4-difluoro-N-methyl-N-[[5-(7H-pyrrolo[2,3-d]pyrimidin-4-yl)-5,8-diazaspiro[2.5]octan-8-yl]sulfonyl]cyclohexanecarboxamide], for which the EC50 on TYK2 is 100 to 500 nM; at JAK1, less than 100 nM; on JAK2, less than 100 nM; at JAK3, less than 100 nM.
With `CN(C(=O)CCC(F)(F)F)S(=O)(=O)N1CCN(c2ncnc3[nH]ccc23)CC12CC2` [Example 131, 4,4,4-trifluoro-N-methyl-N-[[5-(7H-pyrrolo[2,3-d]pyrimidin-4-yl)-5,8-diazaspiro[2.5]octan-8-yl]sulfonyl]butanamide], the EC50 at TYK2 is less than 100 nM; at JAK1, less than 100 nM; at JAK2, less than 100 nM; on JAK3 it was 100 to 500 nM.
For `CN(C(=O)C1CCCC1)S(=O)(=O)N1CCN(c2ncnc3[nH]ccc23)CC12CC2` [Example 132, N-methyl-N-[[5-(7H-pyrrolo[2,3-d]pyrimidin-4-yl)-5,8-diazaspiro[2.5]octan-8-yl]sulfonyl]cyclopentanecarboxamide], the EC50 at TYK2 was 100 to 500 nM; on JAK1, less than 100 nM; on JAK2, less than 100 nM; at JAK3 it was 100 to 500 nM.
Turning to `CN(C(=O)CC1CCCC1)S(=O)(=O)N1CCN(c2ncnc3[nH]ccc23)CC12CC2` [Example 133, 2-cyclopentyl-N-methyl-N-[[5-(7H-pyrrolo[2,3-d]pyrimidin-4-yl)-5,8-diazaspiro[2.5]octan-8-yl]sulfonyl]acetamide], the EC50 is 100 to 500 nM at TYK2, less than 100 nM on JAK1, less than 100 nM on JAK2 and 100 to 500 nM at JAK3.
For `CN(C(=O)CCC1CCCC1)S(=O)(=O)N1CCN(c2ncnc3[nH]ccc23)CC12CC2` [Example 134, 3-cyclopentyl-N-methyl-N-[[5-(7H-pyrrolo[2,3-d]pyrimidin-4-yl)-5,8-diazaspiro[2.5]octan-8-yl]sulfonyl]propanamide], the EC50 at TYK2 was greater than 500 nM; on JAK1 it was less than 100 nM; on JAK2, 100 to 500 nM; at JAK3 it was greater than 500 nM.
On to `CN(C(=O)C1CCS(=O)(=O)C1)S(=O)(=O)N1CCN(c2ncnc3[nH]ccc23)CC12CC2` (stereo not shown) [Example 135, N-methyl-1,1-dioxo-N-[[5-(7H-pyrrolo[2,3-d]pyrimidin-4-yl)-5,8-diazaspiro[2.5]octan-8-yl]sulfonyl]thiolane-3-carboxamide], for which the EC50 at TYK2 was 100 to 500 nM; at JAK1 it was less than 100 nM; on JAK2, less than 100 nM; at JAK3 it was less than 100 nM.

For the origin of these results see US9233964B2, “Sulfamide piperazine derivatives as protein tyrosine kinase inhibitors and pharmaceutical use therof” (LEO PHARMA A/S, priority 2011, dated 2016).
